Laboratory results as given in patent US12286657B2, “Methods and compositions” (United Kingdom Research and Innovation, priority 2018, dated 2025).

What was measured:
[1] = storage and handling of DAP amino acid 6-TFA; type: physicochemical
Source text: Storage: The dry sample of DAP amino acid 6-TFA was stored in air-tight dark glass vials in a cold, dry and dark environment and was stable for over 3 years without decomposition.
It is noteworthy that the vial containing 6-TFA taken out from the fridge or freezer was always allowed to warm to r.t. prior to opening and handling.

E. coli = assay: LC-MS based amino acid uptake assay (intracellular concentration of DAP derivatives); conditions: addition of 1 mM 6 to cell media
[2] = free amino acid (lysine sidechain; beta amino group of DAP); cited from earlier work
[3] = tested on: PCC1RS/tRNACUA and PCC2RS/tRNACUA pairs; assay: amber codon suppression in reporter genes with photocaged-cysteine synthetase pairs; type: cell-based; conditions: cells provided with 3 or 4 and the relevant pair
Source text: Compounds 3 and 4 contain a conservative SH to NH2 substitution relative to photocaged cysteine derivatives that we have previously incorporated into proteins using the PCC1RS/tRNACUA and PCC2RS/tRNACUA pairs, respectively^32. (These pairs were derived from the pyrrolysyl-tRNA synthetase/tRNACUA pair).

[4] = tested on: TEDAP (Vlm TE, serine 2463 replaced by DAP); assay: depsipeptidyl-TE complex formation with TEDAP (LC-ESI-MS); type: biochemical, Streptomyces tsusimaensis; conditions: incubation with TEDAP
HA-tagged Ub = assay: ubiquitination test with UBE2L3 variants; type: biochemical; conditions: for E2-Ub complex formation: 0.2 μM E1, HA-tagged Ub, E2 loading buffer; for redox sensitivity of complex with Ub: presence of ß-mercaptoethanol
Experimental: Ubiquitination test with UBE2L3(C86DAP). […] Ub-UBE2L3: Thioester-linked (UBE2L3[wt]) or isopeptidelinked (UBE2L3[C86DAP]) E2-Ub complex.
In order to test whether UBE2L3(C86DAP5), which had been irradiated with UV light and incubated overnight at 37° C., could be charged with Ub, a reaction containing 0.2 μM E1 and HA-tagged Ub in E2 loading buffer was set up. Each reaction (positive control [wt], negative control [C86A] and [C86DAP]) was performed with and without Ub (see FIG. 23).

Vlm TEwt = assay: LC-ESI-MS analysis of Vlm TE reaction products, TEwt; type: biochemical, Streptomyces tsusimaensis; conditions: incubation with Vlm TEwt
Experimental: (§1) Extracted ion chromatograms (EICs) from HR-LC-ESI-MS of reactions of tetradepsipeptidyl-SNAC 7 (1.7 mM) and Vlm TE (6.5 μM). a, TEwt produces valinomycin as its major product. […] See Supplementary Table 2 for accurate mass analysis and deviations from calculated m/z values of each compound.
(§2) Purified TEwt or TEDAP at 0.2 mg mL-1 (6.5 μM) was incubated with tetradepsipeptidyl-SNAC 7 (1.7 mM), or a mix of tetradepsipeptidyl-SNAC 7 and deoxytetradepsipeptidyl-SNAC 8 (1.7 mM each) in buffer T. Samples were incubated at room temperature for 24 hours, and then quenched with one volume of 0.1% formic acid in acetonitrile. Next, samples were centrifuged at 20,000 g, flash frozen in liquid nitrogen and stored at −80° C. before HPLC analysis. For HPLC-MS analysis, frozen samples were thawed at room temperature, vortexed and clarified by centrifugation at 20,000 g before injection. HR-LC-ESI-MS was performed at the Mass Spectroscopy Facility (Department of Chemistry, McGill University) with an Agilent XDB-C8 (5 μm, 4.6×150 mm) column in a Dionex Ultimate 3000 UHPLC system coupled to a Bruker maXis impact QTOF mass spectrometer in positive ESI mode. […] Data was analyzed using the Bruker DataAnalysis software and the SmartFormula tool (Bruker).

TEDAP = assay: LC-ESI-MS analysis of Vlm TE reaction products, TEDAP; type: biochemical, Streptomyces tsusimaensis; conditions: incubation with TEDAP
Experimental: as §1, §2

Ub-tev-His6 = assay: reactions of TEV with Ubtev (SDS-PAGE, western blot); type: biochemical; conditions: SDS-PAGE and western blot
Source text: The use of TEV(wt) results in cleavage of the TEV cleavage sequence. The use of TEV(C151A) results in minimal cleavage. The presence of DAP in the active site of TEV results in the presence of a new band in the coomassie gel, representing the isopeptide-linked TEV(C151DAP)-Ub complex (left). αUb and αStrep western blots of the reactions confirm the identity of the complex (TEV constructs contain a Strep tag). b, Tandem mass spectrometry of isopeptide-linked TEV(C151DAP)-Ub complex. Tandem mass spectrometry unambiguously identifies the DAP modification at the desired site and the expected tev-Gly-Gly modification on the residue, consistent with Ub trapping on DAP.
Tryptic MS/MS of the slower mobility band identifies the isopeptide linkage between DAP and Ub, confirming formation of the TEVDAP-Ub (FIG. 4b). Therefore, the substitution of the catalytic cysteine in TEV with DAP enables the creation of a protease that goes through the first step of the protease cycle: nucleophilic attack on the substrate carbonyl to form the first tetrahedral intermediate. This intermediate collapses, releasing the C-terminal fragment of the substrate and leaving the N-terminal fragment of the substrate covalently attached to the protease, through a stable amide bond that is not subject to hydrolysis. […]

Molecule: CC(SCCOC(=O)NC[C@H](N)C(=O)O)c1cc2c(cc1[N+](=O)[O-])OCO2 (mixture of isomers) [Compound 6]
- stable without decomposition on storage ([1]; dry sample, air-tight dark glass vials, cold, dry and dark environment): over 3 years
- light and moisture sensitivity on handling ([1]; exposure to moist air): light sensitive and slightly hygroscopic
- intracellular concentration (E. coli): approximately 2 mM

Molecule: NC[C@H](N)C(=O)O (stereo in doubt) [Compound 1, 2,3-diaminopropionic acid]
- pKa of the conjugate acid of the sidechain amine [2]: 9.4

Molecule: N[C@@H](CNCc1ccccc1[N+](=O)[O-])C(=O)O [Compound 3]
- suppression of amber codons in reporter genes [3]: did not function to suppress amber codons

Molecule: CC(C)[C@@H]1NC(=O)[C@H](C)OC(=O)[C@@H](C(C)C)NC(=O)[C@@H](C(C)C)OC(=O)[C@H](C(C)C)NC(=O)[C@H](C)OC(=O)[C@@H](C(C)C)NC(=O)[C@@H](C(C)C)OC(=O)[C@H](C(C)C)NC(=O)[C@H](C)OC(=O)[C@@H](C(C)C)NC(=O)[C@@H](C(C)C)OC1=O [valinomycin, reference compound]
- acyl-TEDAP conjugate formation yield [4]: 65-100%

Molecule: CC(=O)NCCSC(=O)[C@@H](NC(=O)[C@@H](C)OC(=O)[C@@H](NC(=O)CC(C)C)C(C)C)C(C)C (single isomer, unassigned) [deoxy-tetradepsipeptidyl-SNAC 8]
- acyl-TEDAP conjugate formation yield [4]: ~70%

Molecule: UBE2L3(wt): wild type UBE2L3, positive control
- E2-Ub complex formation (HA-tagged Ub): higher molecular weight band could be observed
- redox sensitivity of complex with Ub (HA-tagged Ub): redox sensitive

Molecule: CC(=O)NCCSC(=O)C(NC(=O)C(C)OC(=O)C(NC(=O)C(O)C(C)C)C(C)C)C(C)C [tetradepsipeptidyl-SNAC 7, HO-D-Hiv-D-Val-L-Lac-L-Val-SNAC]
- acyl-TEDAP conjugate formation yield [4]: > 60%
- valinomycin production (Vlm TEwt): led to production of valinomycin
- valinomycin synthesis (TEDAP): did not observe valinomycin synthesis

Molecule: UBE2L3(C86DAP): UBE2L3 with DAP at position 86
- E2-Ub complex formation (HA-tagged Ub): higher molecular weight band could also be detected
- redox sensitivity of complex with Ub (HA-tagged Ub): redox insensitive

Molecule: CC(NC[C@H](N)C(=O)O)c1cc2c(cc1[N+](=O)[O-])OCO2 (some centres unmarked) [Compound 4]
- suppression of amber codons in reporter genes [3]: did not function to suppress amber codons

B1: TEVDAP: TEV protease with amino acid 1 (DAP) at position 151 (protein)
chain: GESLFKGPRDYNPISSTICHLTNESDGHTTSLYGIGFGPFIITNKHLFRRNNGTLLVQSLHGVFKVKNTTTLQQHLIDGRDMIIIRMPKDFPPFPQKLKFREPQREERICLVTTNFQTKSMSSMVSDTSCTFPSSDGIFWKHWIQTKDGQCGSPLVSTRDGFIVGIHSASNFTNTNNYFTSVPKNFMELLTNQEAQQWVSGWRLNADSVLWGGHKVFMSKPEEPFQPVKEATQLMN
- outcome of incubation with Ub-tev-His6 (Ub-tev-His6): formation of a new band

B2: wild-type TEV: wild-type tobacco etch virus protease (protein)
chain: B1 chain
- outcome of incubation with Ub-tev-His6 (Ub-tev-His6): cleaves Ub-tev-His6
